According to patent US11773078B2, “Furin inhibitors” (Glaxosmithkline Intellectual Property Development Limited, priority 2018, dated 2023):
Structures can show the parent of a compound that is named as a salt.

Assays:
[1] = target: T1, furin (endogenous protease) in U20S cells (Homo sapiens, UniProt P09958); assay: Furin cell-based assay (image-based, Golgi-targeted GFP with BMP10 furin/PCSK cleavage site); details: 24-hour incubation, read-out: furin golgi cell pXC50 (converted);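 further: Read-out is mean GFP fluorescence of Golgi puncta per cell by high-content imaging, retained when furin inhibited, over an eleven-point 0.00017–10 µM series, four-parameter fit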
T1 construct: the endogenous protease cleaves GFP; endogenous in cells; host or cells: U2OS cells transduced with a BacMam reporter

[2] = target: T2, Furin (108-574-Tev-Flag-His) enzyme (Homo sapiens, UniProt P09958); assay: Furin enzyme assay; format: biochemical; details: for IC50: read-out: furin enzyme pIC50 (converted)
T2 construct: Furin (108-574-Tev-Flag-His) enzyme was expressed and purified from CHO cells; TEV cleavage site (C); FLAG (C); His (C); made in house; host or cells: CHO cells
Method in brief: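 CHO-expressed, purified furin construct at 40 pM in 100 mM HEPES pH7.5, 1 mM CaCl2, 0.005% Triton X-100. Eleven-point 1:3 series, 0.00017–10 μM final, incubated 2 h at room temperature and read on Envision. pXC50 from four-parameter fit.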

T2 sequence (P09958 108-574): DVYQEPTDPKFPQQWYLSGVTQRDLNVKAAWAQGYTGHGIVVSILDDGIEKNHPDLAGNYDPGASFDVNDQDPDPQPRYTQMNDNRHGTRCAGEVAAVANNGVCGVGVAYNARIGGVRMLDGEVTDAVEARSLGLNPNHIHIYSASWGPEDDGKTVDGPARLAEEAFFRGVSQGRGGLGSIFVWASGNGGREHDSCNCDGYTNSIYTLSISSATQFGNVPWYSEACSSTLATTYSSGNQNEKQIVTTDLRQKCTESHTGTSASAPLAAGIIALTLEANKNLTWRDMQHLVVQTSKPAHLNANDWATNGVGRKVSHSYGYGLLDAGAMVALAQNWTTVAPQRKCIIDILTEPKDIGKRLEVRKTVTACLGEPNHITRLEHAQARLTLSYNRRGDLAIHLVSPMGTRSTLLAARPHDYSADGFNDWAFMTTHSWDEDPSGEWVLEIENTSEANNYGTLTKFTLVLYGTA
T1 sequence (P09958 108-794): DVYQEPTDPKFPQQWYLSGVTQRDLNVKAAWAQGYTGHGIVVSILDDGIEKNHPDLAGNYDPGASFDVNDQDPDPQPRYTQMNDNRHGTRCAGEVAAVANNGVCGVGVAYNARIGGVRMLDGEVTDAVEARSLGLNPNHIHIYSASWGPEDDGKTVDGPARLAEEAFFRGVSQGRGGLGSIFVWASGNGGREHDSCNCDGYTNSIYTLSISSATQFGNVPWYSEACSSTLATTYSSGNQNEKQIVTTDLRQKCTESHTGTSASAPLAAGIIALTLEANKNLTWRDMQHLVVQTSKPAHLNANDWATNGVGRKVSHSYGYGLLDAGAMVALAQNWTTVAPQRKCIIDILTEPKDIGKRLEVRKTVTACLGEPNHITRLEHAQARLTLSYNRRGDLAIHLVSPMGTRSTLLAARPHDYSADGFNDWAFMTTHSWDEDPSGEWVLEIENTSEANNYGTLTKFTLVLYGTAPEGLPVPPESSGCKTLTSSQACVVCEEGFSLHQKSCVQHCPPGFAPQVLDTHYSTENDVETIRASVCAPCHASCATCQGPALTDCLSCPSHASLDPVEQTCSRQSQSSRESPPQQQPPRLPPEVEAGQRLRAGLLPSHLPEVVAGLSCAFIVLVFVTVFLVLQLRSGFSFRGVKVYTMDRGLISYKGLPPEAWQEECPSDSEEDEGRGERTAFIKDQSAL

| SMILES | EC50 [1] | furin enzyme pIC50 [2] | IC50 [2] |
| --- | --- | --- | --- |
| CC(=O)NCC1CCN(Cc2cc(Oc3ccc(N4CCN5C(=O)NCC5C4)nc3)cc(-c3cc(Cl)cc(Cl)c3)c2)CC1 (stereo not shown) [Example 107, N-((1-((3′,5′-Dichloro-5-((6-(3-oxohexahydroimidazo[1,5-a]pyrazin-7(1H)-yl)pyridin-3-yl)oxy)-[1,1′-biphenyl]-3-yl)methyl)piperidin-4-yl)methyl)acetamide, 2 hydrochloride] | 5.01 nM | 9 |  |
| CNCc1cc(Oc2ccc(N3CCC(N)CC3)nc2)nc(-c2cc(C)cc(Cl)c2)c1 [Example 108, 1-(5-((6-(3-Chloro-5-methylphenyl)-4-((methylamino)methyl)pyridin-2-yl)oxy)pyridin-2-yl)piperidin-4-amine, 4 hydrochloride] | > 50100 nM | 7.5 |  |
| CC(=O)NCC1CCN(Cc2cc(Oc3cnc(N4CCNCC4)cn3)nc(-c3cc(Cl)cc(Cl)c3)c2)CC1 [Example 109, N-((1-((2-(3,5-Dichlorophenyl)-6-((5-(piperazin-1-yl)pyrazin-2-yl)oxy)pyridin-4-yl)methyl)piperidin-4-yl)methyl)acetamide] | 15.8 nM | 9.6 |  |
| CC(=O)NCC1CCN(Cc2cc(Oc3cnc(N4CCN(C)CC4)cn3)nc(-c3cc(Cl)cc(Cl)c3)c2)CC1 [Example 110, N-((1-((2-(3,5-Dichlorophenyl)-6-((5-(4-methylpiperazin-1-yl)pyrazin-2-yl)oxy)pyridin-4-yl)methyl)piperidin-4-yl)methyl)acetamide] | 2.51 nM | 10.3 |  |
| CC(=O)NCC1CCN(Cc2cc(Oc3cnc(N4CCN(CCC(=O)O)CC4)cn3)nc(-c3cc(Cl)cc(Cl)c3)c2)CC1 [Example 111, 3-(4-(5-((4-((4-(Acetamidomethyl)piperidin-1-yl)methyl)-6-(3,5-dichlorophenyl)pyridin-2-yl)oxy)pyrazin-2-yl)piperazin-1-yl)propanoic acid] | 158 nM | 9.7 |  |
| O=C(O)CC1CCN(Cc2cc(Oc3cnc(N4CCNCC4)cn3)nc(-c3cc(Cl)cc(Cl)c3)c2)CC1 [Example 112, 2-(1-((2-(3,5-Dichlorophenyl)-6-((5-(piperazin-1-yl)pyrazin-2-yl)oxy)pyridin-4-yl)methyl)piperidin-4-yl)acetic acid] | 126 nM | 8.9 |  |
| CC(=O)NCC1CCN(Cc2cc(Oc3cnc(N4CCN(CCCO)CC4)nc3)cc(-c3cc(Cl)cc(Cl)c3)c2)CC1 [Example 113, N-((1-((3′,5′-Dichloro-5-((2-(4-(3-hydroxypropyl)piperazin-1-yl)pyrimidin-5-yl)oxy)-[1,1′-biphenyl]-3-yl)methyl)piperidin-4-yl)methyl)acetamide] | 12.6 nM |  | < 0.158 nM |
| CC(=O)NCC1CCN(Cc2cc(Oc3ccc(N4CCN(CCC(=O)O)CC4)nc3)nc(-c3cc(F)cc(Cl)c3)c2)CC1 [Example 115, 3-(4-(5-((4-((4-(Acetamidomethyl)piperidin-1-yl)methyl)-6-(3-chloro-5-fluorophenyl)pyridin-2-yl)oxy)pyridin-2-yl)piperazin-1-yl)propanoic acid] | 251 nM | 8.3 |  |
| CC(=O)NCC1CCN(Cc2cc(Oc3ccc(N4CCN(CCC(=O)O)CC4)nc3)nc(-c3cc(F)cc(Br)c3)c2)CC1 [Example 116, 3-(4-(5-((4-((4-(Acetamidomethyl)piperidin-1-yl)methyl)-6-(3-bromo-5-fluorophenyl)pyridin-2-yl)oxy)pyridin-2-yl)piperazin-1-yl)propanoic acid] | 200 nM | 10.4 |  |
| CC(=O)NCC1CCN(Cc2cc(Oc3cnc(N4CCCNCC4)nc3)nc(-c3cc(Cl)cc(Cl)c3)c2)CC1 [Example 118, N-((1-((2-((2-(1,4-Diazepan-1-yl)pyrimidin-5-yl)oxy)-6-(3,5-dichlorophenyl)pyridin-4-yl)methyl)piperidin-4-yl)methyl)acetamide] | 15.8 nM | 8.7 |  |
| CC(=O)NCC1CCN(Cc2cc(Oc3cnc(N4CCC(N)CC4)nc3)nc(-c3cc(Cl)cc(Cl)c3)c2)CC1 [Example 119, N-((1-((2-((2-(4-aminopiperidin-1-yl)pyrimidin-5-yl)oxy)-6-(3,5-dichlorophenyl)pyridin-4-yl)methyl)piperidin-4-yl)methyl)acetamide] | 25.1 nM | 9.3 |  |
| C[N+](C)([O-])CCC1CCN(Cc2cc(Oc3ccc(N4CCNCC4)nc3)nc(-c3cc(Cl)cc(Cl)c3)c2)CC1 [Example 120, 2-(1-((2-(3,5-dichlorophenyl)-6-((6-(piperazin-1-yl)pyridin-3-yl)oxy)pyridin-4-yl)methyl)piperidin-4-yl)-N,N-dimethylethanamine oxide] | 15.8 nM |  | 2 nM |
| CC(=O)NCC1CCN(Cc2cc(Oc3cnc(N4CCNCC4)c(F)c3)nc(-c3cc(Cl)cc(Cl)c3)c2)CC1 [Example 121, N-((1-((2-(3,5-dichlorophenyl)-6-((5-fluoro-6-(piperazin-1-yl)pyridin-3-yl)oxy)pyridin-4-yl)methyl)piperidin-4-yl)methyl)acetamide] | 31.6 nM | 8.6 |  |
| O=C(O)COC1CCN(Cc2cc(Oc3cnc(N4CCNCC4)nc3)nc(-c3cc(Cl)cc(Cl)c3)c2)CC1 [Example 122] | 79.4 nM | 8.5 |  |
| O=C(O)CC1CCN(Cc2cc(Oc3cnc(N4CCNCC(O)C4)nc3)nc(-c3cc(Cl)cc(Cl)c3)c2)CC1 (stereo not shown) [Example 123, 2-(1-((2-(3,5-dichlorophenyl)-6-((2-(6-hydroxy-1,4-diazepan-1-yl)pyrimidin-5-yl)oxy)pyridin-4-yl)methyl)piperidin-4-yl)acetic acid] | 100 nM | 8.7 |  |
| NC1(CCO)CCN(c2ncc(Oc3cc(CN4CCC(CC(=O)O)CC4)cc(-c4cc(Cl)cc(Cl)c4)n3)cn2)CC1 [Example 124, 2-(1-((2-((2-(4-amino-4-(2-hydroxyethyl)piperidin-1-yl)pyrimidin-5-yl)oxy)-6-(3,5-dichlorophenyl)pyridin-4-yl)methyl)piperidin-4-yl)acetic acid] | 20 nM | 8.8 |  |
| CP(C)(=O)CC1CCN(Cc2cc(Oc3cnc(N4CCNCC4)nc3)nc(-c3cc(Cl)cc(Cl)c3)c2)CC1 [Example 125] | 50.1 nM | 8 |  |
| CN1CCN(c2ncc(Oc3cc(CN4CCC(OCC(=O)O)C4)cc(-c4cc(Cl)cc(Cl)c4)n3)cn2)CC1 (stereo not shown) [Example 128, 2-((1-((2-(3,5-dichlorophenyl)-6-((2-(4-methylpiperazin-1-yl)pyrimidin-5-yl)oxy)pyridin-4-yl)methyl)pyrrolidin-3-yl)oxy)acetic acid] | 631 nM | 7.9 |  |

Second part, the molecule after the results:

| EC50 [1] | furin enzyme pIC50 [2] | IC50 [2] | SMILES |
| --- | --- | --- | --- |
| 20 nM |  | < 0.158 nM | O=C(O)CCC1CCN(Cc2cc(Oc3cnc(N4CCN(CCO)CC4)nc3)cc(-c3cc(Cl)cc(Cl)c3)c2)CC1 [Example 114, 3-(1-((3′,5′-Dichloro-5-((2-(4-(2-hydroxyethyl)piperazin-1-yl)pyrimidin-5-yl)oxy)-[1,1′-biphenyl]-3-yl)methyl)piperidin-4-yl)propanoic acid] |
| 31.6 nM | 9.2 |  | CN1CCN(c2ncc(Oc3cc(CN4CCC(CC(=O)O)CC4)cc(-c4cc(Cl)cc(Cl)c4)c3)cn2)CC1 [Example 117, 2-(1-((3′,5′-Dichloro-5-((2-(4-methylpiperazin-1-yl)pyrimidin-5-yl)oxy)-[1,1′-biphenyl]-3-yl)methyl)piperidin-4-yl)acetic acid] |
| 501 nM | 8.8 |  | CC(CC(=O)O)C1CN(Cc2cc(Oc3cnc(N4CCN(C)CC4)nc3)nc(-c3cc(Cl)cc(Cl)c3)c2)C1 (stereo not shown) [Example 127, 3-(1-((2-(3,5-dichlorophenyl)-6-((2-(4-methylpiperazin-1-yl)pyrimidin-5-yl)oxy)pyridin-4-yl)methyl)azetidin-3-yl)butanoic acid] |
| 79.4 nM | 8.2 |  | CN1CCN(c2ncc(Oc3cc(CN4CC5CC(CC(=O)O)CC5C4)cc(-c4cc(Cl)cc(Cl)c4)n3)cn2)CC1 (stereo not shown) [Example 129, 2-(2-((2-(3,5-dichlorophenyl)-6-((2-(4-methylpiperazin-1-yl)pyrimidin-5-yl)oxy)pyridin-4-yl)methyl)octahydrocyclopenta[c]pyrrol-5-yl)acetic acid] |
| 7.94 nM | 8.7 |  | CN1CCN(c2ncc(Oc3cc(CN4CCC(CCC(=O)O)CC4)cc(-c4cc(Cl)cc(Cl)c4)n3)cn2)CC1 [Example 130, 3-(1-((2-(3,5-dichlorophenyl)-6-((2-(4-methylpiperazin-1-yl)pyrimidin-5-yl)oxy)pyridin-4-yl)methyl)piperidin-4-yl)propanoic acid] |
| 31.6 nM | 8.7 |  | CC(CC1CCN(Cc2cc(Oc3cnc(N4CCN(C)CC4)nc3)nc(-c3cc(Cl)cc(Cl)c3)c2)CC1)C(=O)O (stereo not shown) [Example 131, 3-(1-((2-(3,5-dichlorophenyl)-6-((2-(4-methylpiperazin-1-yl)pyrimidin-5-yl)oxy)pyridin-4-yl)methyl)piperidin-4-yl)-2-methylpropanoic acid] |
| 63.1 nM | 8.8 |  | O=C(O)CC1CCN(Cc2cc(Oc3cnc(N4CCCNCC4)nc3)nc(-c3cc(Cl)cc(Cl)c3)c2)CC1 [Example 132, 2-(1-((2-((2-(1,4-diazepan-1-yl)pyrimidin-5-yl)oxy)-6-(3,5-dichlorophenyl)pyridin-4-yl)methyl)piperidin-4-yl)acetic acid] |
| 39.8 nM | 8.3 |  | CN1CC2CN(c3ncc(Oc4cc(CN5CCC(CC(=O)O)CC5)cc(-c5cc(Cl)cc(Cl)c5)n4)cn3)CC2C1 (stereo not shown) [Example 133, 2-(1-((2-(3,5-dichlorophenyl)-6-((2-(5-methylhexahydropyrrolo[3,4-c]pyrrol-2(1H)-yl)pyrimidin-5-yl)oxy)pyridin-4-yl)methyl)piperidin-4-yl)acetic acid] |
